Structures are written as SMILES. Where a SMILES comes first, the peptide text is derived from it. [ ]: non-standard residue; d: D form. The star is where a group is joined. NHCH2CH2OH = OCCN*; For = O=C*

The conditions of data set [1]: cell viability/%. The procedure, abridged:
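First, library peptide stocks are diluted 250-fold in RPMI1640 with 10% heat-inactivated FBS. Next, they are mixed with P388 cells to give 1 × 10^4 cells/mL and incubated 92 h at 37 °C, 5% CO2. Finally, viability (%) is scored by WST-1 absorbance at 415 nm.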

Data set [2] concerns Streptococcus pyogenes SSI-9. In words: Antibacterial activity assay of bead-derived peptides (three concentrations). Further details: key: +++: inhibition by the 640-fold diluted peptide solution; ++: inhibition by the 160-fold diluted solution; +: inhibition by the 40-fold diluted solution; -: no inhibition. To be noted: S. pyogenes, bead-derived peptide solution, three concentrations. The class given is cell-based. The essentials: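 Bead-derived library peptide stocks in DMSO were tested undiluted and after 4- and 16-fold DMSO dilution against S. pyogenes SSI-9 (2 × 10^5 CFU/well) in cation-adjusted Mueller Hinton Broth with 5% laked horse blood. After 18 h at 37 °C, wells were scored for precipitation of grown cells.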

Data set [3] can be described thus: H+/Na+ transport assay of bead-derived peptides (one-point).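 Note: relative to parent gramicidin A activity set to 1.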 On the set-up: key: relative activity; mean of two control wells = 1.00. The settings on record: bead-derived peptide solution, EYPC/EYPG LUVs. Format: biochemical. The essentials: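 Miniaturized 96-well format. LUVs with entrapped pyranine (1.0 mM) were exposed to peptide for 30 min at RT. Intensities were expressed relative to full lysis by Triton X-100 and no treatment, with control-well mean = 1.00.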

Broadly, the viability is a per cent measure of how many cells are alive, often set against a control. `CC(C)C[C@@H](NC(=O)[C@H](C)NC(=O)CNC(=O)[C@@H](NC=O)C(C)C)C(=O)N[C@@H](C)C(=O)N[C@@H](C(=O)N[C@H](C(=O)N[C@H](CC(C)C)C(=O)N[C@@H](Cc1c[nH]c2ccccc12)C(=O)N[C@H](CC(C)C)C(=O)N[C@@H](Cc1c[nH]c2ccccc12)C(=O)N[C@H](CC(C)C)C(=O)N[C@@H](Cc1c[nH]c2ccccc12)C(=O)N[C@@H](C(=O)N[C@@H](Cc1c[nH]c2ccccc12)C(=O)NCCO)C(C)C)C(C)C)[C@H](C)O` [compound 8288] (For-VGA[dL]A[dT]V[dL]W[dL]W[dL]W[dV]W-NHCH2CH2OH) registered a viability in data set [1] of 47.4%. For the same compound, the antibacterial activity result in data set [2] was “-”. Also, in data set [3], the “H+/Na+ transport activity normalized against the value of 1 (1.00)” value (“H+/Na+ transport activity normalized” for short) is 1.02.
In data set [1], `CC(C)C[C@@H](NC(=O)[C@H](C)NC(=O)[C@H](NC(=O)[C@H](C)NC(=O)CNC(=O)[C@@H](NC=O)C(C)C)C(C)C)C(=O)N[C@H](C(=O)N[C@H](CC(C)C)C(=O)N[C@@H](Cc1c[nH]c2ccccc12)C(=O)N[C@H](CC(C)C)C(=O)N[C@@H](Cc1c[nH]c2ccccc12)C(=O)N[C@@H](C(=O)N[C@@H](Cc1c[nH]c2ccccc12)C(=O)N[C@H](CC(C)C)C(=O)N[C@@H](Cc1c[nH]c2ccccc12)C(=O)NCCO)[C@H](C)O)C(C)C` [compound 2682] (For-VGA[dV]A[dL]V[dL]W[dL]W[dT]W[dL]W-NHCH2CH2OH) registered a viability of 100%. The antibacterial activity entry in data set [2] is listed as “+”. Also, in data set [3], the “H+/Na+ transport activity normalized” value came out at 1.06.
Take `CC(C)C[C@@H](NC(=O)[C@H](C)NC(=O)CNC(=O)[C@@H](NC=O)C(C)C)C(=O)N[C@@H](C)C(=O)N[C@H](CC(C)C)C(=O)N[C@H](C(=O)N[C@@H](C(=O)N[C@@H](Cc1c[nH]c2ccccc12)C(=O)N[C@H](CC(C)C)C(=O)N[C@@H](Cc1c[nH]c2ccccc12)C(=O)N[C@@H](C(=O)N[C@@H](Cc1c[nH]c2ccccc12)C(=O)N[C@@H](C(=O)N[C@@H](Cc1c[nH]c2ccccc12)C(=O)NCCO)C(C)C)[C@H](C)O)C(C)C)C(C)C` [compound 65] (For-VGA[dL]A[dL]V[dV]W[dL]W[dT]W[dV]W-NHCH2CH2OH): in data set [1], the viability is 100%. Moreover, the antibacterial activity result in data set [2] was “+”. Moreover, the “H+/Na+ transport activity normalized” value in data set [3] came to 1.08.
In the same order, the values of `CC(C)C[C@@H](NC(=O)[C@H](Cc1c[nH]c2ccccc12)NC(=O)[C@H](NC(=O)[C@H](Cc1c[nH]c2ccccc12)NC(=O)[C@H](NC(=O)[C@@H](NC(=O)[C@H](NC(=O)[C@H](C)NC(=O)[C@H](NC(=O)[C@H](C)NC(=O)CNC(=O)[C@@H](NC=O)C(C)C)C(C)C)C(C)C)C(C)C)[C@H](C)O)C(C)C)C(=O)N[C@@H](Cc1c[nH]c2ccccc12)C(=O)N[C@@H](C(=O)N[C@@H](Cc1c[nH]c2ccccc12)C(=O)NCCO)C(C)C` [compound 10506] (For-VGA[dV]A[dV]V[dT]W[dV]W[dL]W[dV]W-NHCH2CH2OH) are 91.3%, “-” and 1.18.
As for `CC(C)C[C@@H](NC(=O)[C@H](C)NC(=O)CNC(=O)[C@@H](NC=O)C(C)C)C(=O)N[C@@H](C)C(=O)N[C@H](CC(C)C)C(=O)N[C@H](C(=O)N[C@@H](C(=O)N[C@@H](Cc1c[nH]c2ccccc12)C(=O)N[C@@H](C(=O)N[C@@H](Cc1c[nH]c2ccccc12)C(=O)N[C@H](CC(C)C)C(=O)N[C@@H](Cc1c[nH]c2ccccc12)C(=O)N[C@H](CC(C)C)C(=O)N[C@@H](Cc1c[nH]c2ccccc12)C(=O)NCCO)[C@H](C)O)[C@H](C)O)C(C)C` [compound 3858] (For-VGA[dL]A[dL]V[dT]W[dT]W[dL]W[dL]W-NHCH2CH2OH), the viability in data set [1] is 100%. Moreover, in data set [2], the antibacterial activity entry is listed as “-”. The “H+/Na+ transport activity normalized” value in data set [3] was found to be 1.28.
